# Test results as given in patent US20260053767A1, “Hepatoprotective Compositions And Methods” (Jemyll, Ltd., priority 2022, published 2026).
# “Also recorded” adds a separate entry of the source.
# Tests used:
# Type in all cases: cell-based
# SIRT enzymes = assay: Global SIRT activity in liver cells; conditions: AML-12 liver cells
# Source text: (§1) To that end, the inventors used endothelial cells (EOMA cells) and liver cells (AML-12 cells) in vitro and quantified various markers in response to exposure of the cells to environmental challenge in the presence and absence of DDA at low concentrations. Unless indicated otherwise, the DDA concentration in the in vitro experiments was 5 mcg per microliter. More specifically, the inventors measured p-H2AX protein levels as a marker for DNA damage, PGC-1α protein levels as a marker for mitochondrial biogenesis, NAMPT enzyme levels as a marker for potential for NAD+ production, and total antioxidant capacity as a marker of cellular health. In addition, the inventors also measured global SIRT activity as a gauge of activity for all SIRT enzymes, and in particular SIRT1 enzyme levels as markers for autophagy and various beneficial processes associated with a caloric restricted diet, and SIRT3 levels as markers for mitochondrial function and longevity.
# In still further experiments, the liver cells were also tested for global SIRT activity and exemplary results are shown in FIG. 6.
# [1] = system: primary human hepatocytes; assay: In vitro citrate uptake; conditions: citrate 150 μM; for citrate uptake: vs untreated cells
# Experimental: (§2) Isolation of human primary hepatocytes: Tissue obtained during percutaneous liver biopsy, was diced (<3 mm) and washed in HBSS to remove excess blood. Tissue was then transferred to a tube containing pre-warmed EGTA buffer (HBSS, 0.5 mM EGTA, 0.5% fatty acid free bovine serum albumin (BSA)) and agitated (100 rpm) in a water bath with shaking bed for 10 min, 37° C. After three washes, to remove the remaining blood and EGTA, the tissue was placed in pre-warmed digestion buffer (HBSS, 0.05% collagenase IV, 0.5% fatty acid free BSA, 10 mM CaC12) and agitated (100 rpm) in a water bath with shaking bed for 30 min, 37° C. The digested tissue was filtered through 100 μm cell strainer while the remaining tissue was again digested in fresh digestion buffer (20). Cell suspensions were pooled and centrifuged at 80 g for 5 min, 4° C. and the supernatant discarded. Cells were grown until confluent and used for citrate uptake analysis.
# In vitro Citrate Uptake: Primary human hepatocytes were incubated with or without Dodecanedioic acid, sodium salt (0.1-0.25-0.5-1-1.5% w/vol) for 30 minutes. Following the incubation step, citrate was added at a final concentration of 150 μM for 40 minutes. At the end of the stimulation citrate uptake was assessed by a commercial Citrate Assay Kit and data analyzed with Varioskan LUX multimode microplate reader.
# [2] = system: primary human hepatocytes; assay: In vitro palmitic acid stimulation, gene expression by quantitative real-time PCR
# Experimental: Total RNA from human primary hepatocytes was extracted using the RNeasy Plus Mini Kit according to the indications provided by the company. A small aliquot of total RNA obtained (3 μl) was subjected to qualitative and quantitative control by using the microdrop. The qualitative and quantitative assessment of the individual samples was determined using a dedicated software. The total RNA was reverse transcribed into cDNA by using iScript RT. SYBR Green gene expression assays were performed according to the manufacturer's instruction using the iQTMSYBR Green Supermix and the CFX96 Touch Real-Time PCR Detection System. For this purpose, the following pairs of primer were used: solute carrier family 13 member 5 (SLC13A5) (forward 5′ […] 3′ (SEQ ID NO:1) and reverse 5′ […] 3′ (SEQ ID NO:2)), Diacylglycerol O-Acyltransferase 1 (DGAT1) (forward 5′ […] 3′ (SEQ ID NO:3) and reverse 5′ […] 3′ (SEQ ID NO:4)), Fatty Acid Synthase (FASN) (forward 5′ […] 3′ (SEQ ID NO:5) and reverse 5′ […] 3′ (SEQ ID NO:6)), carnitine palmitoyltransferase 1A (CPT1A) (forward 5′ […] 3′ (SEQ ID NO:7) and reverse 5′ […] 3′ (SEQ ID NO:8)) and Acetyl-CoA carboxylase (ACC1) (forward 5′ […] 3′ (SEQ ID NO:9) and reverse 5′ […] 3′ (SEQ ID NO:10)). mRNA expression levels were normalized to B2-microglobulin (forward 5′[…] 3′ (SEQ ID NO:11); and reverse 5′[…] 3′ (SEQ ID NO:12)) and quantification of relative gene expression, presented as percentage of the relevant baseline, was calculated using the 2-ACT (comparative threshold) method.
# as §2
# At the end of the stimulation de novo lipogenesis, fatty acid beta-oxidation and SLC13A5 gene expression were assessed by Quantitative Real-Time PCR Analysis.
# [3] = system: liver cells (AML-12 cells); assay: DNA damage (p-H2AX protein levels) in liver cells; conditions: AML-12 liver cells, 6 hours; p=0.068
# Source text: as §1
# Finally, the inventors also investigated whether or not DDDA could have a protective effect against peroxide induced DNA damage, and exemplary results are shown in FIG. 11. […] N=5-6 plates per treatment.
# [4] = primary human hepatocytes, C12 1% (v/w) with palmitic acid 0.4 mM, vs palmitic acid alone
smiles,measurement,setting,value
"O=C(O)CCCCCCCCCCC(=O)O [DDDA, dodecanedioic acid]",global SIRT activity,"SIRT enzymes; 6 hours, in the presence of hydrogen peroxide, p<0.001",increased global SIRT activity in a statistically significant manner
same,global SIRT activity,"SIRT enzymes; 24 hours, no hydrogen peroxide, same trend, p=0.065",did not reach a level of significance
same,citrate uptake,[1]; C12 1% (v/w),significant decrease
same,citrate uptake,[1]; C12 1.5% (v/w),significant decrease
same,citrate uptake (figure legend),[1]; C12 0.1-1.5% v/w,inhibits citrate uptake
same,gene expression of citrate transporter SLC13A5,"[2]; human hepatocytes, C12 1% (v/w) with palmitic acid 0.4 mM, vs palmitic acid alone, listed as C12",significant decrease; also recorded: reducing citrate transporter SLC13A5
same,DNL in primary hepatocytes (figure legend),"[2]; palmitic acid 0.4 mM, C12 1%",reduces
same,ACC1 (de novo lipogenesis enzyme),[2]; [4],significant reduction
same,CPT1A (fatty acid beta-oxidation enzyme),[2]; [4],significant increase
same,DGAT (de novo lipogenesis enzyme),[2]; [4],significant reduction
same,FASN (de novo lipogenesis enzyme),[2]; [4],significant reduction
same,peroxide induced DNA damage,[3],trend towards decreased DNA damage
